From patent US20250268260A1, “PESTICIDAL COMPOSITIONS INCLUDING AN ISOXAZOLINE COMPOUND” (SYNGENTA CROP PROTECTION AG, priority 2022, published 2025)

How the values were obtained:
Assay type in all cases: in vivo
Agriotes lineatus = assay: Barley seed treatment, wireworm (Agriotes lineatus) corrected mortality and plant height (Example 3); conditions: for Plant height in cm / % Increase plant height in comparison to infested control (6DAI) observed: 6DAI; for Plant height in cm: barley, infested control 9.3, not infested control 14.9; for % Corrected mortality (20 DAI) observed: 20 days after infestation, barley seed treatment
Procedure: The products FS400 and NOVODOR 3% FC were diluted with the addition of water to have the dose of active ingredient for 30 seeds plusan overage of 10%. These extra 10% were needed to compensate for losses of active ingredient during the seed treatment process. 30 seeds of barley were placed in a spheric glass beaker, and the application solution was added. The beaker was swung to mix the seeds with the solution. After drying two seeds were sown per pot. 10 replicates per treatment were prepared. 5 days after sowing the pots were infested with 10 wireworms (Agriotes lineatus, approx. 20 mm length). 20 days after infestation (20DAI), the corrected mortality of the wireworms was assessed based on the control treatment. 6 days after infestation (6DAI) the plant height was measured.

Diabrotica balteata = assay: Corn seed treatment, Diabrotica balteata larvae mortality and plant damage (Example 2); conditions: 6 days after infestation, alone or combined
Procedure: The products FS400 and NOVODOR 3% FC were diluted with the addition of water to have the dose of active ingredient for 30 seeds plus an overage of 10%. These extra 10% were needed to compensate for losses of active ingredient during the seed treatment process. 30 seeds of corn were placed in a spheric glass beaker, and the application solution was added. The beaker was swung to mix the seeds with the solution. After drying, four seeds were sown per pot. 5 replicates per treatment were prepared. 14 days after sowing the pots were infested with 5 second instar larvae of Diabrotica balteata. 6 days after infestation (6DAI) the mortality of larvae and the damage on the plants was assessed.

Spodoptera littoralis = assay: Foliar spray on soybean plants, Spodoptera littoralis larvae mortality (Example 1); conditions: isocycloseram 0.4 ppm (0.2 g AI/ha), Bt1 45 ppm (22.5 g AI/ha), alone or combined, second instar larvae; for % mortality (3DAA) Observed Results: 3 days after application; for % mortality (5DAA) Observed Results: 5 days after application
Procedure: The products VIRANTRA SC400 and COSTAR WG 18 are diluted with the addition of water to obtain the concentrations of active ingredients gathered in Table 1 and Table 2, and were applied on soybean plants (planted in pots; ˜8 plants per pot, 5 pots per treatment), in using a turn table application machine (500 l/ha). After drying 10 soybean plants were cut and placed in a petri dish (diameter: 14.5 cm) containing 3 wet filter papers (4 ml water); 3 replicates per concentration were done. Plants were infested with 10 Spodoptera littoralis larvae (second instar of larvae) and petri dish was covered with a round cotton tissue and closed with a plastic lid. Three and five days after application mortality was assessed.

[1] = isocycloseram 0.25 μg/seed (6 g/100 kg seed), alone or + Bt2 5 μg/seed
[2] = isocycloseram 1.25 μg/seed (24 g/100 kg seed), alone or + Bt2 5 μg/seed
[3] = isocycloseram 0.01 mg/seed (3 g/100 kg seeds), Bt2 0.03 mg/seed (10 g/100 kg seeds)
[4] = isocycloseram 0.03 mg/seed (10 g/100 kg seeds), Bt2 0.1 mg/seed (30 g/100 kg seeds)
[5] = Bt2 alone 5 μg/seed (120 g/100 kg seed)

| Compound | Plant height in cm (Agriotes lineatus; [1]) | Plant height in cm (Agriotes lineatus; [2]) | % Increase plant height in comparison to infested control (6DAI) observed (Agriotes lineatus; [1]) | % Increase plant height in comparison to infested control (6DAI) observed (Agriotes lineatus; [2]) | % Corrected mortality (20 DAI) observed (Agriotes lineatus; isocycloseram 0.25 μg/seed (6 g/100 kg seed), alone or + Bt2 5 μg/seed (120 g/100 kg seed)) | % Corrected mortality (20 DAI) observed (Agriotes lineatus; isocycloseram 1.25 μg/seed (24 g/100 kg seed), alone or + Bt2 5 μg/seed (120 g/100 kg seed)) | % Mortality (6DAI) observed (Diabrotica balteata; [3]) | % Plant damage reduction (6DAI) observed (Diabrotica balteata; [3]) | % Mortality (6DAI) observed (Diabrotica balteata; [4]) | % Plant damage reduction (6DAI) observed (Diabrotica balteata; [4]) | % mortality (3DAA) Observed Results (Spodoptera littoralis) | % mortality (5DAA) Observed Results (Spodoptera littoralis) | % Increase plant height in comparison to infested control (6DAI) observed (Agriotes lineatus; [5]) | Plant height in cm (Agriotes lineatus; [5]) | % Corrected mortality (20 DAI) observed (Agriotes lineatus; [5]) |
| --- | --- | --- | --- | --- | --- | --- | --- | --- | --- | --- | --- | --- | --- | --- | --- |
| CCN1OCC(NC(=O)c2ccc(C3=NOC(c4cc(Cl)c(F)c(Cl)c4)(C(F)(F)F)C3)cc2C)C1=O (stereo not drawn) [isocycloseram] | 10.2 cm | 10.6 cm | 10% | 14% | 17% | 25% | 33% | 33% | 58% | 50% | 0% | 7% |  |  |  |
| Bacillus thuringiensis var. tenebrionis strain NB-176 [Bt2] |  |  |  |  |  |  | 0% | −6% | 0% | 11% |  |  | 0% | 9 cm | 0% |
| Bacillus thuringiensis var. kurstaki strain SA-12 [Bt1] |  |  |  |  |  |  |  |  |  |  | 20% | 30% |  |  |  |
